3 compounds from patent publication US20240261274A1, “TREATMENT OF MYC-DRIVEN CANCERS WITH GSPT1 DEGRADERS” (MONTE ROSA THERAPEUTICS, INC., priority 2021, published 2024) can be followed below.

Series [1] deals with NCI-H1155 xenograft (human non small cell lung cancer). Put plainly: NCI-H1155 xenograft efficacy study (compound 210). Format: in vivo, BALB/c nude mice. On the procedure:
For the NCI-H1155 xenograft study, cells (human non small cell lung cancer, ATCC CRL-5818) were maintained in vitro as suspension culture in ATCC-formulated DMEM:F12 Medium supplemented as recommended by the provider and kept at 37° C. in an atmosphere of 5% CO2 in air. Cells (0.5 million) were resuspended in 0.2 mL of PBS with Matrigel (50:50) and inoculated into female BALB/c nude mice, 6-8 weeks old, and allowed to grow to 150 mm^3 in size. Mice were dosed orally with either vehicle or compound 210 at 1 or 3 mg per kilogram daily (filled squares and filled triangles, respectively) or 6 mg per kilogram for 5 continuous days followed by 9 days treatment holidays (5 On-9 off) (filled inverted triangles). Compound formulations were prepared fresh daily in 5% vDMSO/95% (30% w/v HP-β-CD in water). Gemcitabine dosed at 40 mg per kilogram, IP, Q4D×5 was used as a positive control (filled rhombi). For this study, mice were dosed for 21 days with tumor volumes measured every 3 days.

The target of series [2] is T1, GSPT1 (Homo sapiens, UniProt P15170+Q96SW2). Put plainly: GSPT1 degradation in tumors of mice treated with compound 210. The note with it: 1 mg/kg, 3 mg/kg, 6 mg/kg; compared to vehicle control. Format: in vivo. On the set-up: from tissue; host or cells: NCI-H1155 subcutaneous xenograft tumours from BALB/c nude mice.
T1 sequence (P15170 whole entry): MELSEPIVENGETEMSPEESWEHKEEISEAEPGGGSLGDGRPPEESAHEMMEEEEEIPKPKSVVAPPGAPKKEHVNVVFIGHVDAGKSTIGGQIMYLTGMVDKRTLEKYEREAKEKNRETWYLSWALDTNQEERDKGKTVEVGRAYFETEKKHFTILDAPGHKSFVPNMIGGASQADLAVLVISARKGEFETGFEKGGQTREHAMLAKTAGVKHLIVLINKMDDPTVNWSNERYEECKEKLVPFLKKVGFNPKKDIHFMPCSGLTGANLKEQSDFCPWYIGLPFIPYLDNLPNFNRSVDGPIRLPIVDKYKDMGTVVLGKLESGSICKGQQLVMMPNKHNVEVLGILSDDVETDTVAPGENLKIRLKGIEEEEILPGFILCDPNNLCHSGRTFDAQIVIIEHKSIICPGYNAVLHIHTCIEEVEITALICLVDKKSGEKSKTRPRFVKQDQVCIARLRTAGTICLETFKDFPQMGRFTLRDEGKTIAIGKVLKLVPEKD
T1 sequence (Q96SW2 whole entry): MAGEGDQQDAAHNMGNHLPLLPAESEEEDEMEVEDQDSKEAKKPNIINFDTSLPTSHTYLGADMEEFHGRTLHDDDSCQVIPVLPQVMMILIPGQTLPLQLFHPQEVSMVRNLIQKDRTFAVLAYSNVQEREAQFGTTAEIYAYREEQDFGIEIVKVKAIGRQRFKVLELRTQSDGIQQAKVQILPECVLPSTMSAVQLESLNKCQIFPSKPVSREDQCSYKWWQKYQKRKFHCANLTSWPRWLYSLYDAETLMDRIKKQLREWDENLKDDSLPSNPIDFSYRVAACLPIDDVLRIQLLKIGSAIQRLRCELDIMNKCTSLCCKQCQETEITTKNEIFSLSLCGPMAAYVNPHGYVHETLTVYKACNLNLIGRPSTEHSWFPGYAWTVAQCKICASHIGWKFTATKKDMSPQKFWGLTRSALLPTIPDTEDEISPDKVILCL
T1 sequence (Q16531 whole entry partner): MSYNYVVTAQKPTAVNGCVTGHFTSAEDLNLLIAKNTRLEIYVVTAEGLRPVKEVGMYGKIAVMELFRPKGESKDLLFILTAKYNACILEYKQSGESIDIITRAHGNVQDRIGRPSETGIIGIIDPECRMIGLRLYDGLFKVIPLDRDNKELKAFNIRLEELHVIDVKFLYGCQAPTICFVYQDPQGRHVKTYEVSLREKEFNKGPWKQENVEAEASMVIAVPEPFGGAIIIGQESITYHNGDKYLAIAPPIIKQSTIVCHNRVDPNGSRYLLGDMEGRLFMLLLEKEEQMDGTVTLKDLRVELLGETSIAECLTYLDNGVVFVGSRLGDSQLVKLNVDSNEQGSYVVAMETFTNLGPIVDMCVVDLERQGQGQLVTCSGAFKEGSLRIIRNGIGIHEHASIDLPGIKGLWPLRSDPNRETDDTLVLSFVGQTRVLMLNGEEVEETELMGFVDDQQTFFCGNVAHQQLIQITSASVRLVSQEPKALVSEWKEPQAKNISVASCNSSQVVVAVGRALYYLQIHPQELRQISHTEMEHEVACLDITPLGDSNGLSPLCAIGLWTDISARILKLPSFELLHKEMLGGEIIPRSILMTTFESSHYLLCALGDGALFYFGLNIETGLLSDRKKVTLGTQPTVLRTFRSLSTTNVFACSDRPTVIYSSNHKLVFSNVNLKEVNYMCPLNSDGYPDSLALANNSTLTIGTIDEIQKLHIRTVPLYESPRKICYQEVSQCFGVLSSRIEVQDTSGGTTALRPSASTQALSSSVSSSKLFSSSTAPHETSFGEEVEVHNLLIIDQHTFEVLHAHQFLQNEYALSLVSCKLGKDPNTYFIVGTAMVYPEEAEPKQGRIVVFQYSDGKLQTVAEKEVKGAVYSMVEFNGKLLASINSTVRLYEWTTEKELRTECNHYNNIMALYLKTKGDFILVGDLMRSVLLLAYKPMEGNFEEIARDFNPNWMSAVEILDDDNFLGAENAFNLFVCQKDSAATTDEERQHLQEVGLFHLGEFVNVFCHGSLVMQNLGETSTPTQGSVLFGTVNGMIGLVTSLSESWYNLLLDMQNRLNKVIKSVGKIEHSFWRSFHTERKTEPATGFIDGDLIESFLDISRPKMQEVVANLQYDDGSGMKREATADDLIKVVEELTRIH
For series [3], the target named is T1, GSPT1. Put plainly: GSPT1 levels in NCI-H1155 tumors (Compound 345). It counts as in vivo, mice. On the set-up: from tissue; host or cells: NCI-H1155 subcutaneous xenograft tumours from BALB/c nude mice. Conditions: day 5, 1 mg/kg and 10 mg/kg, strongest effect at 10 mg/kg. The protocol: Additionally, plasma concentrations of Compound 345 and levels of GSPT1 and […] (relative to vehicle-only control) were measured in a time-course experiment on day 5 for the animals receiving 1 mg/kg and 10 mg/kg.
GSPT1 and N-Myc western blotting analyses from NCI-H1155 tumors: The NCI-H1155 model was run as described previously and tumors were harvested following 5 consecutive daily PO doses of Compound 345 at 1.0 and 10 mg/kg. Tumors were lysed in 1× lysis buffer (CST, Cat. No. 9803, Lot No. 0000122383) supplemented with protease (Sigma, Cat. No. P8340) and phosphatase ((Sigma, Cat. No. P5726 and P0044) cocktail inhibitors using TissueLyser II (QIAGEN #85300). Samples were spined at 15,000 rpm in an Eppendorf microfuge for 15 min at 4° C. The protein supernatant was collected in a new 1.5 ml tube and the protein concentrations were determined by the Pierce BCA kit (Thermo, Cat. No. 23225). The tumor lysate samples were mixed with 5×SDS-PAGE loading buffer boiled for 5 min and brought to ice for 5 min. 30 μg of protein was loaded onto a NUPAGE 4-12% BT gel (Invitrogen, Cat. No. NPO336BOX) for separation. […] Membranes were imaged on the Odyssey imager (Li-COR) using fluorescence or cheminulinescence detection. […] Data are expressed as mean±SEM derived from at least three different mice and collected at 0, 2, 6, 12, 24, 48, 72 and 96 hr as indicated.

Series [4] has as its system MDA-MB-468, MDA-MB-231, MDA-MB-436 and CAL51 triple negative breast cancer models. Put plainly: In vivo anti-tumor activity of compound 8 in triple negative breast cancer models. On the set-up: species or system mice. Conditions: i.p. 37 and 75 mpk, 21 continuous days; all four models. On the procedure: Shown are representative examples of triple negative breast cancer models with high 4EBP1 marker expression levels. Tumor growth was measured in MDA-MB-468 (ATCC HTB-132) (A), MDA-MB-231 (ATCC HTB-26) (B), MDA-MB-436 (ATCC HTB-130) (C) and CAL51 (DSMZ-ACC-302) (D) as indicated. compound 8 was dosed i.p at 37 and 75 mpk for 21 continuous days and tumor size measured every three days. Vehicle (black line), compound 8 dosed daily at 37 mpk (light grey) and 75 mpk (dark grey). X-axis represents days; y-axis represents the tumor volume (mm^3).

Turning to `Cc1ccc(NC(=O)OCc2ccc3c(c2)C(=O)N(C2CCC(=O)NC2=O)C3)cc1Cl` (stereo not shown) [Compound 210], the body weight entry in series [1] (oral administration, NCI-H1155 xenograft mice) is on record as “no body weight loss observed”. The tumor growth result in series [1] (oral, 1 mg/kg once daily) was “tumor growth was suppressed for two weeks”. Moreover, the tumor size entry in series [1] (oral, 3 mg/kg once daily) is on record as “tumor size decreased, became undetectable by day eight”; in series [1] (oral, 6 mg/kg five days on and nine days off), “tumor size decreased, became undetectable by day eight”. Moreover, the “GSPT1 degradation in tumors” value at GSPT1 [2] is given as “complete degradation of GSPT1”.

As to `O=C1CCC(N2Cc3ccc(COC(=O)Nc4cc(OC(F)(F)F)ccc4F)cc3C2=O)C(=O)N1` (stereo not shown) [Compound 345, (2-(2,6-dioxopiperidin-3-yl)-3-oxoisoindolin-5-yl)methyl(2-fluoro-5-(trifluoromethoxy)phenyl)carbamate], the “GSPT1 level relative to vehicle-only control” value at GSPT1 [3] was “substantially reduced”.

`Cc1ccc(NC(=O)NCc2ccc3c(c2)C(=O)N(C2CCC(=O)NC2=O)C3)cc1Cl` (stereo not shown) [Compound 8]: the “anti-tumor activity (tumor volume)” value in series [4] was “robust and dose-dependent anti-tumor activity, including regressions”.
